# Assay results reported in patent US20250290117A1, “MOLECULAR PHENOTYPIC ANTIMICROBIAL SUSCEPTIBILITY TESTING” (priority 2024, published 2025).
# Legend:
# E. coli [1] = experiment: Molecular phenotypic antimicrobial susceptibility test with direct PCR (no extraction DNA purification step); assay type: cell-based, Escherichia coli
# [2] = system: pathogens of clinical samples; experiment: Molecular phenotypic antimicrobial susceptibility test of clinical samples, direct PCR without a separate DNA purification step (Table 6); assay type: cell-based
# Method in brief: (§1)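 Patient specimens in boric acid preservative were culture-incubated, diluted to 0.5 McFarland and exposed for 12-16 hours to antimicrobials in broth at their sensitivity breakpoint concentration(s), with a no-drug well for pathogen load. Growth was then measured by semi-quantitative PCR, either after DNA purification (e.g. magnetic beads) or directly after lysis-buffer treatment without extraction.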
# Escherichia coli = experiment: Molecular phenotypic antimicrobial susceptibility test (extraction or DNA purification prior to PCR); assay type: cell-based
# Method in brief: as §1
# E. coli [3] = experiment: Molecular phenotypic antimicrobial susceptibility test, specimen with two detected pathogens incubated together without isolation; assay type: cell-based, Escherichia coli; details: E. coli in specimen with two detected pathogens (E. coli and M. morganii) incubated together; for Ct of Sensitive Breakpoint: Ct of controls (average) 15.93; for Molecular Antimicrobial Susceptibility Result: at sensitive breakpoint
# Method in brief: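 Specimen in boric acid; pathogens identified by PCR while a parallel aliquot grew 4-6 h in liquid medium. With >10,000 cells/mL detected, culture diluted to 0.5 McFarland and exposed to antimicrobials in broth (e.g. Mueller Hinton) at breakpoint concentrations; both pathogens incubated together unisolated, growth read by molecular methods against medium-only wells.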
# [4] = E. coli isolate JJ1887, direct PCR, Ct at control (average) 12.832
# [5] = E. coli isolate JJ1887, direct PCR, at sensitive breakpoint
# [6] = E. coli, clinical sample of r10-r24
# [7] = E. coli, clinical sample of r10-r24, Ct control avg 12.97
# [8] = E. coli, clinical sample of r158-r172
# [9] = E. coli, clinical sample of r158-r172, Ct control avg 12.894
# [10] = K. aerogenes, clinical sample of r136-r150
# [11] = K. aerogenes, clinical sample of r136-r150, Ct control avg 13.854
# [12] = K. pneumoniae, clinical sample of r121-r135
# [13] = K. pneumoniae, clinical sample of r121-r135, Ct control avg […]
# [14] = M. morganii, clinical sample of r55-r69
# [15] = M. morganii, clinical sample of r55-r69, Ct control avg 12.09
# [16] = M. morganii, clinical sample of r70-r84
# [17] = M. morganii, clinical sample of r70-r84, Ct control avg 11.677
# [18] = P. mirabilis, clinical sample of r25-r39
# [19] = P. mirabilis, clinical sample of r25-r39, Ct control avg 11.801
# [20] = P. mirabilis, clinical sample of r40-r54
# [21] = P. mirabilis, clinical sample of r40-r54, Ct control avg 10.06
# [22] = E. coli isolate 1, Ct at control (average) 21.238
# [23] = E. coli isolate 1, at sensitive breakpoint
# [24] = E. coli isolate 2, Ct at control (average) 21.270
# [25] = E. coli isolate 2, at sensitive breakpoint
# [26] = E. coli isolate 3, Ct at control (average) 22.0995
# [27] = E. coli isolate 3, at sensitive breakpoint
compound,measurement,setting,value
O=C1CN(/N=C/c2ccc([N+](=O)[O-])o2)C(=O)N1 [Nitrofurantoin],Molecular Antimicrobial Susceptibility Result,"E. coli [1]; E. coli #1 - WDCM 00090 - 6.2×E3, specimen with <10,000 cells/mL, direct PCR after 16 hours of incubation",Sensitive (Antimicrobial wells with pathogen load detected below the control wells (typically >2 cycle thresholds later) may be reported as Sensitive)
same,Ct at Sensitive Breakpoint,"E. coli [1]; E. coli #1 - WDCM 00090 - 6.2×E3, specimen with <10,000 cells/mL, direct PCR after 16 hours of incubation, Ct at control 13.787",27.90
same,Molecular Antimicrobial Susceptibility Result,"E. coli [1]; E. coli #2 - WDCM 00090 - 6.2×E3, specimen with <10,000 cells/mL, direct PCR after 16 hours of incubation",Sensitive (Antimicrobial wells with pathogen load detected below the control wells (typically >2 cycle thresholds later) may be reported as Sensitive)
same,Ct at Sensitive Breakpoint,"E. coli [1]; E. coli #2 - WDCM 00090 - 6.2×E3, specimen with <10,000 cells/mL, direct PCR after 16 hours of incubation, Ct at control 13.46",28.97
same,Ct at Sensitive Breakpoint,E. coli [1]; [4],26.305
same,Molecular Antimicrobial Susceptibility Result,E. coli [1]; [5],Sensitive (Antimicrobial wells with pathogen load detected below the control wells (typically >2 cycle thresholds later) may be reported as Sensitive)
same,Molecular Antibiotic Susceptibility Result,[2]; [6],Sensitive (Antimicrobial wells with pathogen load detected below the control wells (typically >2 cycle thresholds later) may be reported as Sensitive)
same,Ct,[2]; [7],24.883
same,Molecular Antibiotic Susceptibility Result,[2]; [8],Sensitive (Antimicrobial wells with pathogen load detected below the control wells (typically >2 cycle thresholds later) may be reported as Sensitive)
same,Ct,[2]; [9],27.377
same,Molecular Antibiotic Susceptibility Result,"[2]; E. faecalis, clinical sample of r93-r99",Sensitive (Antimicrobial wells with pathogen load detected below the control wells (typically >2 cycle thresholds later) may be reported as Sensitive)
same,Ct,"[2]; E. faecalis, clinical sample of r93-r99, Ct control avg 22.011",36.826
same,Ct,"[2]; E. faecalis, clinical sample of r100-r106, Ct control avg 21.027",33.684
same,Ct,"[2]; E. faecalis, clinical sample of r107-r113, Ct control avg 20.529",32.294
same,Molecular Antibiotic Susceptibility Result,"[2]; E. faecalis, clinical sample of r114-r120",Sensitive (Antimicrobial wells with pathogen load detected below the control wells (typically >2 cycle thresholds later) may be reported as Sensitive)
same,Ct,"[2]; E. faecalis, clinical sample of r114-r120, Ct control avg 20.909",32.771
same,Molecular Antibiotic Susceptibility Result,"[2]; E. faecalis, clinical sample of r151-r157",Sensitive (Antimicrobial wells with pathogen load detected below the control wells (typically >2 cycle thresholds later) may be reported as Sensitive)
same,Ct,"[2]; E. faecalis, clinical sample of r151-r157, Ct control avg 18.551",37.634
same,Molecular Antibiotic Susceptibility Result,[2]; [10],Sensitive (Antimicrobial wells with pathogen load detected below the control wells (typically >2 cycle thresholds later) may be reported as Sensitive)
same,Ct,[2]; [11],29.821
same,Molecular Antibiotic Susceptibility Result,[2]; [12],Sensitive (Antimicrobial wells with pathogen load detected below the control wells (typically >2 cycle thresholds later) may be reported as Sensitive)
same,Ct,[2]; [13],28.708
same,Molecular Antibiotic Susceptibility Result,[2]; [14],Sensitive (Antimicrobial wells with pathogen load detected below the control wells (typically >2 cycle thresholds later) may be reported as Sensitive)
same,Ct,[2]; [15],28.588
same,Molecular Antibiotic Susceptibility Result,[2]; [16],Sensitive (Antimicrobial wells with pathogen load detected below the control wells (typically >2 cycle thresholds later) may be reported as Sensitive)
same,Ct,[2]; [17],29.959
same,Molecular Antibiotic Susceptibility Result,[2]; [18],Resistant
same,Ct,[2]; [19],12.013
same,Molecular Antibiotic Susceptibility Result,[2]; [20],Resistant
same,Ct,[2]; [21],10.329
same,Molecular Antibiotic Susceptibility Result,"[2]; S. aureus, clinical sample of r85-r92",Sensitive (Antimicrobial wells with pathogen load detected below the control wells (typically >2 cycle thresholds later) may be reported as Sensitive)
same,Ct,"[2]; S. aureus, clinical sample of r85-r92, Ct control avg 20.309",32.477
same,Ct at Sensitive Breakpoint,Escherichia coli; [22],35.690
same,Molecular Antimicrobial Susceptibility Result,Escherichia coli; [23],Sensitive (Antimicrobial wells with pathogen load detected below the control wells (typically >2 cycle thresholds later) may be reported as Sensitive)
same,Ct at Sensitive Breakpoint,Escherichia coli; [24],30.495
same,Molecular Antimicrobial Susceptibility Result,Escherichia coli; [25],Sensitive (Antimicrobial wells with pathogen load detected below the control wells (typically >2 cycle thresholds later) may be reported as Sensitive)
same,Ct at Sensitive Breakpoint,Escherichia coli; [26],21.722
same,Molecular Antimicrobial Susceptibility Result,Escherichia coli; [27],Sensitive (Antimicrobial wells with pathogen load detected below the control wells (typically >2 cycle thresholds later) may be reported as Sensitive)
same,Ct at Sensitive Breakpoint,"Escherichia coli; E. coli isolate 4, Ct at control (average) 17.5733",32.06
same,Molecular Antimicrobial Susceptibility Result,"Escherichia coli; E. coli isolate 4, at sensitive breakpoint",Sensitive (Antimicrobial wells with pathogen load detected below the control wells (typically >2 cycle thresholds later) may be reported as Sensitive)
same,Ct at Sensitive Breakpoint,"Escherichia coli; E. coli isolate 5, Ct at control (average) 21.0933",33.53
same,Molecular Antimicrobial Susceptibility Result,"Escherichia coli; E. coli isolate 5, at sensitive breakpoint",Sensitive (Antimicrobial wells with pathogen load detected below the control wells (typically >2 cycle thresholds later) may be reported as Sensitive)
same,Ct of Sensitive Breakpoint,E. coli [3],27.36
same,Molecular Antimicrobial Susceptibility Result,E. coli [3],Sensitive (Antimicrobial wells with pathogen load detected below the control wells (typically >2 cycle thresholds later) may be reported as Sensitive)
Ampicillin/Sulbactam,Ct at Sensitive Breakpoint,E. coli [1]; [4],12.693
same,Molecular Antimicrobial Susceptibility Result,E. coli [1]; [5],Resistant
same,Molecular Antibiotic Susceptibility Result,[2]; [6],Resistant
same,Ct,[2]; [7],13.482
same,Molecular Antibiotic Susceptibility Result,[2]; [8],Sensitive (Antimicrobial wells with pathogen load detected below the control wells (typically >2 cycle thresholds later) may be reported as Sensitive)
same,Ct,[2]; [9],27.583
same,Molecular Antibiotic Susceptibility Result,[2]; [10],Sensitive (Antimicrobial wells with pathogen load detected below the control wells (typically >2 cycle thresholds later) may be reported as Sensitive)
same,Ct,[2]; [11],29.276
same,Molecular Antibiotic Susceptibility Result,[2]; [12],Resistant
same,Ct,[2]; [13],15.608
same,Molecular Antibiotic Susceptibility Result,[2]; [14],Sensitive (Antimicrobial wells with pathogen load detected below the control wells (typically >2 cycle thresholds later) may be reported as Sensitive)
same,Ct,[2]; [15],26.942
same,Molecular Antibiotic Susceptibility Result,[2]; [16],Sensitive (Antimicrobial wells with pathogen load detected below the control wells (typically >2 cycle thresholds later) may be reported as Sensitive)
same,Ct,[2]; [17],32.39
same,Molecular Antibiotic Susceptibility Result,[2]; [18],Sensitive (Antimicrobial wells with pathogen load detected below the control wells (typically >2 cycle thresholds later) may be reported as Sensitive)
same,Ct,[2]; [19],28.121
same,Molecular Antibiotic Susceptibility Result,[2]; [20],Sensitive (Antimicrobial wells with pathogen load detected below the control wells (typically >2 cycle thresholds later) may be reported as Sensitive)
same,Ct,[2]; [21],30.953
same,Ct at Sensitive Breakpoint,Escherichia coli; [22],19.827
same,Molecular Antimicrobial Susceptibility Result,Escherichia coli; [23],Resistant
same,Ct at Sensitive Breakpoint,Escherichia coli; [24],21.753
same,Molecular Antimicrobial Susceptibility Result,Escherichia coli; [25],Resistant
same,Ct at Sensitive Breakpoint,Escherichia coli; [26],20.363
same,Molecular Antimicrobial Susceptibility Result,Escherichia coli; [27],Resistant
same,Ct of Sensitive Breakpoint,E. coli [3],14.58
same,Molecular Antimicrobial Susceptibility Result,E. coli [3],Resistant
